Peptide text beside a SMILES is read from it.
Key:
mouse embryo fibroblasts [1] = experiment: anti-oxidation: cell survival after hydrogen peroxide treatment (MTT method); type: cell-based
Protocol: Following subculture of the mouse embryo fibroblasts and incubation for 4 hours for attachment, hydrogen peroxide was used to treat the cells as the source of oxidation. The cells were treated with 100, 150, 200 and […] of hydrogen peroxide before addition of 25, 50, 75 and 100 μM of surfactin for another 24 hours. Cell survival rate was measured by the MTT method.

[2] = Razafindralambo et al.; cited from earlier work
mouse embryo fibroblasts [3] = experiment: cell proliferation of mouse embryo fibroblasts; type: cell-based; conditions: 48 hours
[4] = skin penetration of FITC-labeled dexamethasone in mice; type: in vivo; conditions: 0.2, 0.5, 1 and 2% surfactin, 1 hour, back of mice, fluorescence intensity
Protocol: (§1) Before the experiment, the back of the mice was shaved. Mice aged 6-8 weeks were anesthetized by intraperitoneal injection using (Zoletil) and lay the animal flat before shaving the back with a electric razor and remove the remaining hair with hair removal cream. Place the animals in the cages with a warming light and provide water in each cage. Two groups are include in the experiment: for the control group, 100 μl of PBS (pH=7.4) was mixed with fluorescein isothiocyanate (FITC)-labeled HA or dexamethasone before added to 1 cm2 sterile cotton and affixed to the back of the mice; for the experimental group, FITC-labeled HA or dexamethasone was mixed with 0, 0.2, 0.5, 1, 2 and 5% surfactin for 1 hour.
(§2) At the end of 1 hour treatment, sacrificed the mice with CO2 asphyxiation, clean up the drug residue on the skin with ethanol and cut the skin on the back and embedded in Optimum cutting temperature compound (O.C.T) (SAKURA®, Japen) for cryosection (CM-2000, Leica, Germany).

[5] = percutaneous penetration of gold nanoparticles in mice; type: in vivo; conditions: 12.5 ppm surfactin, gold nanoparticles 2 nm, mice (BALB/c)
Source text: We applied the mix of gold nanoparticles and surfactin to the skin of mice for a certain period of time and collected the skin for cryosection. Because gold nanoparticles is self-luminous, optical microscope can be used to observe the content of fluorescence of gold nanoparticles in epidermis and dermis of the skin. The results indicated skin care paste obtained by conventional methods is not helpful for gold nanoparticle absorption by the skin due to its internal gel-mass like or gel-bundle like structure and thus gold nanoparticles were only found in the epidermis.

[6] = turbidity of diluted shampoo and corecervate formation; type: physicochemical
Protocol: (1) Adjust the relative concentration of the shampoo to 0.01-1.0
Relative concentration=shampoo liquid (g)/(shampoo liquid (g)+water (g))
(2) Measure the transmittance rate (%, temperature at 40° C.) of the […] solution (1) and the turbidity is represented as =100−transmittance rate (%)

[7] = skin absorption of FITC-labeled hyaluronic acid in mice; type: in vivo; conditions: 1 hour, back of mice
Protocol: as §1, §2

[8] = foaming power, foam maximum density (MD); type: physicochemical; conditions: buffer pH 7.4, more than 150 μg of surfactin, surfactin produced by Bacillus subtilis TH
Protocol: Measure the height of the foam and calculate the foam maximum density (MD).
Surfactants are […] and present invention examined the foaming property of crude surfactin. The method developed by Razafindralambo et. al was referenced and different concentrations of crude surfactin was dissolved in a buffer solution with a pH at 7.4, vortex for 2 minutes and followed by incubation for 1 hour. The height of the foam was then measured and the foaming power is expressed as foam maximum density (MD) which is obtained by dividing the […].

sirtuin 1 gene = experiment: mRNA expression of the long-lived gene sirtuin 1 by real-time quantitative PCR; type: cell-based; conditions: mouse embryo fibroblasts
Source text: Total RNA was extracted from human skin fibroblasts and mouse embryo fibroblasts using TRIzol reagent (Invitrogen, USA), analyzed by RNA gel electrophoresis and subjected to RT-PCR for amplification of human skin fibroblasts sirtuin 1 and sirtuin 3 and mouse embryo fibroblasts sirtuin 1. GeneBan was used to identify well known sequences of sirtuins and GCG program was utilized to search for sequences with high similarity. A primer set was designed for polymerase chain reaction (PCR), followed by 1.2% agarose gel electrophoresis of a small portion of the reaction product to confirm the expected product has been amplified. Once confirmed, the remaining product was subjected to low-melting point agar gel electrophoresis, the product was excised from the gel and the specific size of DNA fragment was purified by gel extraction for cloning. The purified DNA fragment was ligated with the cloning vector pGEM-T-easy vector (pGEM-T-easy cloning kit, Promega, USA) before transformed into the competent cells. Finally, after small scale culture, cloning vector was extracted for sequencing, and the sequence data was compared using the BLAST program of NCBI. Part of the human skin fibroblast sirtuin 1 and sirtuin 3 and mouse embryo fibroblasts sirtuin 1 were correctly cloned by the abovementioned cloning procedures and the selected clones were transformed into competent cells again for extraction of plasmid with high purity for future experiments.
RNA is easily degraded in natural environment by RNase and thus all tools used must be autoclaved and dried in an oven prior to conducting experiments and wear gloves and masks during the procedures. Quickly add 800 μL TRIzol™ reagent to the culture dish of the experimental group and transfer the washed off cells to a sterile tube. Add chloroform to the tube in the volume of ⅕ of the total volume of TRIzol™ reagent and shake vigorously for 30 seconds. After incubation at room temperature for 15 minutes, centrifuge at 13200 rpm for 15 minutes at 4° C. and transfer the supernatant to a new 1.5 mL eppendorf. RNA is present in the aqueous phase of the supernatant. Transfer the supernatant to another clean 1.5 mL eppendorf and add Isopropanol in the volume of ½ of TRIzol™ reagent and high salt solution (1.2 M Sodium Chloride and 0.8 M Sodium citrate), mix well and incubate at −20° C. for 30 minutes, followed by centrifugation at 13200 rpm for 15 minutes at 4° C. to precipitate RNA; remove the supernatant carefully and add 800 μL of 100% absolute ethanol to wash and centrifuge at 13200 rpm for 10 minutes at 4° C. before washing with 100% ethanol. Carefully remove the supernatant and dry the RNA precipitate at 55° C. for 5 minutes. Dissolve the RNA precipitate in 15 μL DEPC water and incubate at 55° C. for 10 minutes and store at −80° C. freezer for future use.
Place 5 μg of total RNA in a 200 μL eppendorf and adjust the volume to 13 μL with DEPC water, add 1 μL of oligo(dT) 18, 10 mM dNTPs and incubate on ice. Add 4 μl of 5×AMV buffer and 1 μl of AMV (40 units/μL) and mix well. […]
The fluorescent dye SYBR green I can be embedded in the groove of double-stranded DNA and generate fluorescence when excited by a halogen light and its intensity can then be measured. When SYBR green I is not embedded in the groove of double-stranded DNA, its fluorescence background value is very low; and when it starts to integrate into the amplified target gene sequence, the fluorescence signal of SYBR green I will also be increased accordingly. […]

[9] = skin absorption of FITC-labeled poly-γ-glutamic acid in mice; type: in vivo; conditions: 1, 2, 5, 10, 15 and 20% surfactin, 1 hour, back of mice, fluorescence intensity
[10] = emulsifying power in diesel, emulsification index (E24); type: physicochemical
Protocol: After incubation at room temperature for 24 hours, emulsification index (E24) was measured.
The emulsifying power is one of the important indicator of surfactants, and present invention utilized the method published by Cooper et. al to measure the emulsification index of surfactants in diesel. Different concentrations of crude surfactin was dissolved in buffer solutions at pH 6.4, 7.4 and 8.4, and 2 ml of the dissolved mixture was added to a test tube containing 3 ml of diesel, vortex for 2 minutes and incubate at room temperature for 24 hours before measurement. The ration of height of the emulsifying phase and the total height of the solution multiplied by 100% will give the emulsification index of the test solution. The emulsifying power of oil products is represented as the emulsification index (E24), wherein the equation of E24 is shown as follows: E24(%)=(height of the emulsifying phase/total height of solution)×100%.

collagen = experiment: Sircol soluble collagen assay; type: cell-based, mouse; conditions: 24 hours
Protocol: Sircol™ soluble collagen assay kit was used for analysis the total concentration of collagen in the culture media and the general method is described as follows:
Place 0.1 ml of the test samples and the standards at different concentrations in separate 1.5 mL centrifuge tubes. Add 1 mL of dye reagent and vortex for 35 minutes, followed by centrifugation at 12000 rpm for 10 minutes and remove the supernatant. Carefully remove the residue water at the side of the tube to avoid contact with the precipitate. Add 1 mL of Alkali reagent to dissolve the precipitate and transfer 0.2 mL to a 96-well pate after the color has developed and measure absorbance at 570 nm using an ELISA reader.

mouse embryo fibroblasts [11] = experiment: anti-photoaging: cell survival after UV-A irradiation (MTT method); type: cell-based; conditions: for cell survival rate after UV irradiation: 24 hours
Protocol: After incubation for 24 hours, cell survival rates were measured by the MTT method.

Question: With CC(C)CCCCCCCCC[C@@H]1CC(=O)N[C@@H](CCC(=O)O)C(=O)N[C@@H](CC(C)C)C(=O)N[C@H](CC(C)C)C(=O)N[C@@H](C(C)C)C(=O)N[C@@H](CC(=O)O)C(=O)N[C@H](CC(C)C)C(=O)N[C@@H](CC(C)C)C(=O)O1 [surfactin] (HELM PEPTIDE1{E.L.[dL].V.D.[dL].L}|CHEM1{[CC(C)CCCCCCCCC[C@H](CC(=O)[*:1])O[*:2]]}$PEPTIDE1,CHEM1,1:R1-1:R1|PEPTIDE1,CHEM1,7:R2-1:R2$$$V2.0) as the compound, how does the “protective effect against hydrogen peroxide” value (mouse embryo fibroblasts [1]; 25, 50 and 75 μM surfactin) read?
Answer: good protective effect

Question: What about the “survival rate of mouse embryo fibroblasts treated with hydrogen peroxide” value (mouse embryo fibroblasts [1]; hydrogen peroxide 100-250 μM, surfactin 24 hours, MTT) of the same compound?
Answer: can increase the survival rate

Question: And the “MD value of surfactin” value [2]?
Answer: ≥ 0.10

Question: What about the “mouse embryo fibroblast proliferation” value (mouse embryo fibroblasts [3]; 0, 25, 50, 75 and 100 μM) of the same compound?
Answer: can enhance mouse embryo fibroblast proliferation

Question: And the “concentration with the best effect in inducing cell proliferation” value (mouse embryo fibroblasts [3]; followed by 50 μM)?
Answer: 75 µM

Question: And the “cell proliferation compared with resveratrol and Palmitoyl pentapeptide-3” value (mouse embryo fibroblasts [3]; resveratrol 0-30 μM, Palmitoyl pentapeptide-3 0-10 μM)?
Answer: better effect in inducing cell proliferation

Question: What about the “skin penetration of dexamethasone” value [4] of the same compound?
Answer: can enhance skin penetration of dexamethasone

Question: What about the “percutaneous absorption of gold nanoparticles” value [5] of the same compound?
Answer: significantly enhance the percutaneous absorption of gold nanoparticles

Question: What about the “turbidity of the shampoo” value ([6]; compared with sodium laureth sulfate, 40° C., relative concentration 0.01-1.0) of the same compound?
Answer: can further reduce the turbidity of the shampoo

Question: And the corecervate formation ([6]; shampoo during flushing / dilution)?
Answer: corecervate will occur at low concentrations

Question: What about the “hyaluronic acid (HA) absorption by the skin” value ([7]; 0.2-5% surfactin, fluorescence intensity) of the same compound?
Answer: can increase hyaluronic acid (HA) absorption by the skin

Question: And the “surfactin concentration with the best effect on enhancing skin absorption of HA” value [7]?
Answer: 1%

Question: What about the “foam maximum density (MD), minimum” value [8] of the same compound?
Answer: 1.23

Question: And the “concentration with the best effect in enhancement of sirtuin 1 expression” value (sirtuin 1 gene; 0-100 μM tested, 6-48 hours)?
Answer: 50 µM

Question: And the “expression of the sirtuin 1 gene” value (sirtuin 1 gene; 6 hours, 50 μM and 75 μM surfactin)?
Answer: enhance expression of the sirtuin 1 gene

Question: And the “expression of the sirtuin 1 gene” value (sirtuin 1 gene; 12 hours, 25 μM surfactin)?
Answer: enhancement of expression of the sirtuin 1 gene

Question: What about the “expression of the sirtuin 1 gene” value (sirtuin 1 gene; 36 hours, 50 μM and 100 μM surfactin) of the same compound?
Answer: enhancement of expression of the sirtuin 1 gene

Question: What about the “expression of the sirtuin 1 gene” value (sirtuin 1 gene; 48 hours, 50 μM surfactin) of the same compound?
Answer: enhancement of expression of the sirtuin 1 gene

Question: And the “skin absorption of γ-GPA” value [9]?
Answer: can all increase skin absorption of γ-GPA

Question: What about the “pH of the best emulsifying power” value ([10]; pH 6.4, 7.4 and 8.4 tested, E24 after 24 hours) of the same compound?
Answer: 7.4

Question: And the “concentration of the best emulsifying power” value ([10]; pH=7.4)?
Answer: 160 μg/m

Question: What about the “collagen proliferation in mouse embryo fibroblasts” value (collagen; 25, 50, 75 and 100 μM, compared with PBS control) of the same compound?
Answer: great effects in increasing collagen proliferation

Question: What about the “concentration with the best result in increasing collagen” value (collagen) of the same compound?
Answer: 100 µM

Question: And the “cell survival rate after UV irradiation” value (mouse embryo fibroblasts [11]; UV 10 J/cm^2, 25, 50, 75, 100 and 125 μM surfactin)?
Answer: increase cell survival rate

Question: And the “concentration with the best protection after UV irradiation” value (mouse embryo fibroblasts [11]; UV 10 J/cm^2, 24 hours)?
Answer: 75 µM

Question: And the “cell survival rate after UV irradiation” value (mouse embryo fibroblasts [11]; UV 15 J/cm^2, 25, 50, 75, 100 and 125 μM surfactin)?
Answer: increase cell survival rate

Question: And the “concentration with the best protection after UV irradiation” value (mouse embryo fibroblasts [11]; UV 15 J/cm^2, 24 hours)?
Answer: 50 µM

Question: For “palmitoyl pentapeptide-3 [reference compound]”, which “collagen effect compared with surfactin” value (collagen) is on record?
Answer: not as good as surfactin

Question: What about the “collagen content in the cells” value (collagen; Palmitoyl pentapeptide-3 3, 5, 8 and 10 μM) of the same compound?
Answer: can also increase collagen content

— patent US9364413B2, “Method for anti-aging treatment by surfactin in cosmetics via enhancing sirtuin” (UMO International Co., Ltd., priority 2014, dated 2016)
